# Experimental data from patent US5958944A, “Benzamide compounds and pharmaceutical use thereof” (Yoshitomi Pharmaceutical Industries, Ltd., priority 1994, dated 1999).
# How the values were obtained:
# [1] = tested on: spontaneously hypertensive rats (SHR); assay: Pharmacological Experiment 1: hypotensive effects, systolic blood pressure at one hour after oral administration, tail cuff method; type: in vivo, rat; conditions: SHR P.O., 30 mg/kg
# Experimental: Pharmacological Experiment 1: hypotensive effects
# To spontaneously hypertensive rats (SHR) weighing 350-450 g (3-5 per group) was orally administered a test compound (30 mg/kg) dissolved in 0.5% hydroxypropylmethylcellulose, and systolic blood pressure at one hour after administration was determined by tail cuff method to examine hypotensive effects.
# [2] = tested on: tracheal specimen; assay: Pharmacological Experiment 3: effect on contraction caused by acetylcholine in extracted tracheal specimen; type: cell-based; conditions: Cavia porcellus; guinea pig trachea contracted with acetylcholine (10^-6 M); relative to maximum response by papaverine (10^-4 M) as 100%; read-out: bronchodilative action (IC50)
# Experimental: Pharmacological Experiment 3: Effect on contraction caused by acetylcholine in tracheal specimen extracted from guinea pig
# Male Hartley guinea pigs (body weight 260-390 g) were anesthetized by intraperitoneal administration of pentobarbital sodium (100 mg/kg) and killed by exsanguinity. The trachea was removed and ventral cartilage was cut open and ligament was cut in 3 mm width to prepare specimens. The specimens were hung in a 40 ml Magnus bath filled with Krebs-Henseleit solution (NaCl 117 mM; KCl 4.7 mM; CaCl2 2.5 mM; MgSO4 1.2 mM; NaHCO3 24.8 mM; KH2 PO4 1.2 mM; glucose 11.0 mM) at 37° C. at a load of 1 g. The Magnus bath was constantly aerated with a mixed gas (95% oxygen+5% carbon dioxide). The tension of the specimens was measured by isometric transducer (TB-611T, Nihon Koden) and recorded on a recorder (Ti-102, Tokai Irika). The specimens were contracted with acetylcholine (10^-6 M) and when the contraction became constant, the compound was cumulatively added to observe relaxing response. The relaxing response by the compound was calculated relative to maximum response by papaverine (10^-4 M) as 100% as the concentration necessary for 50% relaxation (IC50, μM).
# [3] = tested on: thoracic aorta; assay: Pharmacological Experiment 2: vasodilating effects, relaxation of phenylephrine-contracted thoracic aorta rings; type: cell-based; conditions: Oryctolagus cuniculus; rabbit thoracic aorta rings contracted with phenylephrine (10^-6 M); contraction by phenylephrine as 100%; read-out: vasodilating action (concentration necessary for 50% relaxation, IC50)
# Experimental: Pharmacological Experiment 2: vasodilating effects
# Male rabbits (body weight 1.9-3.0 kg) were anesthetized with sodium pentobarbital and killed by exsanguinity. The thoracic aorta was removed and about 2 mm wide ring specimens were prepared. The specimens were hung in a 40 ml Magnus bath filled with Krebs-Henseleit solution (NaCl 117 mM; KCl 4.7 mM; CaCl2 2.5 mM; MgSO4 1.2 mM; NaHCO3 24.8 mM; KH2 PO4 1.2 mM; glucose 11.0 mM) at 37° C. at a load of 2 g. The Magnus bath was constantly aerated with a mixed gas (95% oxygen+5% carbon dioxide). The tension of the specimens was measured by isometric transducer (TB-611T, Nihon Koden). The specimens were contracted with phenylephrine (10^-6 M) and when the contraction became constant, the compound was cumulatively added to observe relaxing response. The relaxing response by the compound was calculated relative to contraction by phenylephrine as 100% as the concentration necessary for 50% relaxation (IC50, μM).
SMILES,hypotensive effect [1] [mmHg],IC50 [2] [nM],IC50 [3] [nM]
"C[C@@H](N)c1ccc(C(=O)Nc2ccnc3[nH]ccc23)cc1 [Example 9, (R)-(+)-N-(1H-pyrrolo[2,3-b]pyridin-4-yl)-4-(1-aminoethyl)benzamide]",-131,50,50
"C[C@@H](N)c1ccc(C(=O)Nc2ccncc2)cc1 [Example 1, (R)-N-(4-pyridyl)-4-(1-aminoethyl)benzamide]",-116,–,–
"C[C@@H](N)c1ccc(C(=O)Nc2ccnc3[nH]ccc23)cc1N=[N+]=[N-] [Example 150, (R)-(-)-N-(1H-pyrrolo[2,3-b]pyridin-4-yl)-4-(1-aminoethyl)-3-azidobenzamide]",–,–,30
